# Molecular target: T1, human topoisomerase I (Homo sapiens, UniProt P11387)
# T1 construct: unnamed fusion partner (recombinant fusion protein); made in house
# T1 sequence (P11387 1-765): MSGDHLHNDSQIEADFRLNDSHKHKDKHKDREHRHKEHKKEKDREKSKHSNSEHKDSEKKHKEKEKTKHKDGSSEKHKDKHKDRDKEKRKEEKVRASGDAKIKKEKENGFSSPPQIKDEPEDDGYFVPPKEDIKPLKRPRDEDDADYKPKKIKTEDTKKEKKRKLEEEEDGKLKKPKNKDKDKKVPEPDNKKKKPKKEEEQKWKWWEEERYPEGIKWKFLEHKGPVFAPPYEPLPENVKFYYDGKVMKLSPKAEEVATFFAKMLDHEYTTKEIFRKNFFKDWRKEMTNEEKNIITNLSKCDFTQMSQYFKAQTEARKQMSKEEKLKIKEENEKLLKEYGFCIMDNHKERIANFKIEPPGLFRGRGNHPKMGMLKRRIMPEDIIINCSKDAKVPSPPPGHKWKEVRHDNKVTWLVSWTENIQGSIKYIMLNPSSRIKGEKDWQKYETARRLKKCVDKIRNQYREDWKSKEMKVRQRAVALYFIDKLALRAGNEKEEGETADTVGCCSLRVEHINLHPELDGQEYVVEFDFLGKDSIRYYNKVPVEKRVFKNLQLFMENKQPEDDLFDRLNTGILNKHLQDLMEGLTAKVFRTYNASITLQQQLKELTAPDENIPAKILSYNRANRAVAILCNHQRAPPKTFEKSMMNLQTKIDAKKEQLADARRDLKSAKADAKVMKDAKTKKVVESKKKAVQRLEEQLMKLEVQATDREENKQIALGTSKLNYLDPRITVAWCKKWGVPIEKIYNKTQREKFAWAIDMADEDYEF
# Experiment: Test A. Topoisomerase I Cleavage Assay
# Type: biochemical
# Settings: concentration relative to compound 5 producing the same cleavage on plasmid DNA in the presence of human topoisomerase I
# Experimental: Test A. Topoisomerase I Cleavage Assay.
# Representative compounds of the invention were evaluated in a cleavage assay using recombinant topoisomerases I. This assay was preformed as described by B. Gatto et al. Cancer Res., 1996, 56, 2795-2800. Human topoisomerase I was isolated as a recombinant fusion protein using a T7 expression system. Plasmid YEpG was purified by the alkali lysis method followed by phenol deproteination and CsCl/ethidium isopycnic centrifiigation as described by Maniatis, T.; Fritsch, E. F.; Sambrook, J. Molecular Cloning, a Laboratory Manual; Cold Spring Harbor Laboratory: Cold Spring Harbor, N.Y. 1982; pp 149-185. The end-labeling of the plasmid was accomplished by digestion with a restriction enzyme followed by end-filling with Klenow polymerase as previously described by Liu, L. F.; Rowe, T. C.; Yang, L.; Tewey, K. M.; Chen, G. L. “Cleavage of DNA by mammalian topoisomerase II,” J. Biol. Chem. 1983, 258, 15365. […] Topoisomerase I cleavage values are reported as REC, Relative Effective Concentration (i.e., concentrations relative to compound 5, whose value is arbitrarily assumed as 1) that is able to produce the same cleavage on the plasmid DNA in the presence of human topoisomerase I.
compound,measurement,value
"FC(F)(F)c1nc2cc(-c3nc4cc(-c5nc6cc(-c7ccccc7)ccc6[nH]5)ccc4[nH]3)ccc2[nH]1 [Compound 5, 5-Phenyl-2-[2′(2″-trifluoromethylbenzimidazol-5″yl)benzimidazol-5′-yl]benzimidazole]","Topoisomerase I cleavage, REC (Relative Effective Concentration)",1

# Source: patent publication US6399642B2, “Benzimidazole topoisomerase poisons” (Rutgers, The State University of New Jersey, priority 1998, dated 2002)
